{"source": "patent US20260356803A1", "about": "“Nicotinamide derivatives” (Board of Regents, The University of Texas System, priority 2024, published 2026)", "key": {"[1]": {"tested_on": "mouse and human MPNST cell lines", "conditions": "cited from earlier work"}, "[2]": {"tested_on": "NMNAT1 or alcohol dehydrogenase", "assay": "Counter screen with NMN in place of NAM", "format": "biochemical", "conditions": "role: inhibitor; 50 μM NMN substituted for NAM", "experimental": "NAMPT activity was measured using a coupled-enzyme assay previously described [Revollo, 2014]. Briefly, reactions consisting of 50 mM Tris pH 8, 0.4 mM PRPP, 2.5 mM ATP, 12 mM MgCl2, 0.02% BSA, 1 μM NAMPT, 77 nM NMNAT1, 10 mM semicarbazide, 30 μg/ml alcohol dehydrogenase were set up in a 384-well plate (50 μl/well). […] The reactions were started by addition of 50 μM NAM. Fluorescence due to NADH formation by alcohol dehydrogenase was measured in a BioTek Cytation 5 plate reader (Agilent, USA) set up for excitation at λ=340 nm and detection of emission at λ=460 nm. To counter screen for NMNAT1 or alcohol dehydrogenase inhibition, the assay was set up above but substituting 50 μM NMN (substrate for NMNAT1) for NAM. No inhibition of was observed under these conditions."}, "Schwann cells": {"tested_on": "Schwann cells", "conditions": "cited from earlier work"}, "[3]": {"conditions": "mice; dosed orally (b5); listed as compound 21; cited from earlier work"}, "[4]": {"tested_on": "human MPNST cell line S462", "assay": "S462 cell viability (CellTiter-Glo, 72 h)", "format": "cell-based", "conditions": "for IC50: read-out: IC50", "excerpt": "This similarity, in addition to the scaffold's particular sensitivity to modifications around the pyridinyl ring led us to hypothesize that the activity of compounds 1 and 9 may depend on the concentration of Nam in the media. To test this hypothesis, we analyzed the activity of both compounds in media supplemented with increasing concentrations of Nam. […] Given that Nam inhibited compound activity, we considered Nam concentrations in basal culture conditions (DMEM supplemented with 10% fetal bovine serum or FBS) as compared to physiological levels. Nam levels in human serum are estimated to be in the 4 μM range.^5 In contrast, DMEM alone contains […] of Nam and the concentration in 10% FBS is expected to range between 0.574-1.56 μM.^6 To more closely reflect physiologic levels of Nam, we evaluated the activity of these compounds in cells grown in DMEM lacking Nam (Nam-free DMEM), so that the only exogenous Nam derives from 10% FBS. […] These observations indicate that the potency of these compounds is in the nanomolar range when tested in the presence of physiological levels of Nam.\nWe thus re-assessed the structure activity relationship of compound 21 analogs in Nam-free DMEM supplemented with or without 100 μM Nam (see appendix below: Synthesis, characterization and activity of micromolar and nanomolar active nicotinamide derivatives). […] Particularly notable, even in Nam-depleted conditions, all active analogs retained the same 3-pyridinyl ring as Nam, reinforcing the relationship between structural resemblance to Nam and compound efficacy.\n(§1) In 96-well assay plates (Corning #2903), 2,000 cells were plated per well in 100 μL of medium and allowed to adhere overnight. The next day, compounds or Nam suspended in DMSO were dispensed to the assayed wells using a D300e Digital Dispenser (Tecan). All wells were normalized to 0.5% DMSO. 72 hours after incubation at 37 °C in 5% CO2, cell viability was assayed using an ATP-based luminescent viability assay, CellTiter-Glo (Promega #G8462). CellTiter-Glo substrate was mixed 1:1 with phosphate-buffered saline (PBS) supplemented with 1% Triton X-100, and 40 μL of this mixture was added to the assay wells. After the plates were shaken on a microplate shaker for 10 minutes at room temperature, luminescence was recorded using a Synergy 2 Microplate Reader or Cytation 5 plate reader (BioTek). In Prism 9 software (GraphPad), ten-point dose response curves were plotted with baseline-correction to the vehicle control well, and IC50 values were calculated by curve fitting using asymmetric (five parameter), least squares fit."}, "HCT116 cells": {"tested_on": "HCT116 cells", "assay": "Cas9-expressing HCT116 cell viability", "format": "cell-based", "excerpt": "To gain insight into the mechanism of 9 and the relevance of Nam, we pursued two independent and complementary unbiased genetic approaches. First, we performed a genome-wide pooled Clustered Regularly Interspaced Short Palindromic Repeats (CRISPR) and CRISPR-associated protein 9 (Cas9) knockout screen to identify genes whose loss of function can enhance or suppress compound 9 activity. […] We cultured Cas9-expressing HCT116 cells in 10% FBS Nam-free DMEM and transduced with a lentiviral single guide RNA (sgRNA) library designed to silence 19,114 human genes.^11 These cells were treated with either vehicle (DMSO) or 9 for 30 days by which time the 9-treated cells had 7.6 fewer population doublings. Then, relative sgRNA sequences in the resulting cells were determined by massively parallel sequencing of PCR products amplified from genomic DNA, and the relative impact of each gene was derived from the sgRNA reads.\n(§2) These observations, taken together, support the hypothesis that the activity of compound 9 depends on NAMPT and NMNAT1.\nas §1"}, "[5]": {"assay": "Co-treatment of 9 with sublethal FK866", "format": "cell-based", "experimental": "as §2, §1"}, "iHCT116 cells": {"tested_on": "iHCT116 cells", "assay": "iHCT116 cell viability with or without ectopic NMNAT1 expression", "format": "cell-based", "excerpt": "Second, we screened for resistance to 9 in iHCT116 cells, a system that uses inducible mutagenesis and forward genetics to find compound-resistant mutations and thus can reveal both loss of function and gain of function alleles that suppress activity. The iHCT116 system is a barcoded cell line in which we temporally control mutagenesis by the addition of indole acetic acid (IAA) mediated degradation of the mismatch repair protein MLH1.^12 MLN4924 is a small molecule toxin that we use as a positive control to verify that IAA treatment leads to increased mutations. By degrading MLH1 and increasing the overall mutation rate, IAA treatment increases the frequency of UBA3 mutations, leading to a higher rate of MLN4924 resistance. […] Having previously established a relationship between either NMNAT1 levels or NAMPT activity and compound resistance, we analyzed the levels of both enzymes in multiple resistant clones that harbored unique barcode sequences. […] To test whether reduced NMNAT1 levels in these clones contributed to resistance, we ectopically expressed NMNAT1 in either the parental cells or a representative resistant clone with low NMNAT1 expression.\nas §1"}, "[6]": {"conditions": "Nam titration experiment, media without added Nam"}, "[7]": {"conditions": "S462, commercial DMEM, highest dose tested 50 μM"}, "[8]": {"conditions": "addition of 100 μM exogenous Nam"}}, "note": "Entries after “also recorded” stand apart in the source; their conditions may differ. Read-outs that look alike come from different tables or passages of the source."}
{"smiles": "O=C(Nc1cccnc1)c1cccs1", "note": "[Compound 1, N-(pyridin-3-yl)thiophene-2-carboxamide]", "values": [{"measurement": "toxicity to MPNST cell lines", "setting": "[1]", "result": "selectively toxic"}, {"measurement": "inhibition in counter screen", "setting": "[2]", "result": "No inhibition"}, {"measurement": "toxicity to Schwann cells", "setting": "Schwann cells", "result": "nontoxic"}, {"measurement": "bioavailability", "setting": "[3]", "result": "bioavailable when dosed orally; also recorded: bioavailable in mice"}, {"measurement": "IC50", "setting": "[4]; [6]", "result": 1.96, "unit": "µM"}, {"measurement": "IC50", "setting": "[4]; [7]", "result": 1.41, "unit": "µM"}, {"measurement": "IC50", "setting": "[4]; [8]", "result": 6.85, "unit": "µM"}, {"measurement": "IC50", "setting": "[4]; addition of 1 mM exogenous Nam", "result": 32.3, "unit": "µM"}]}
{"smiles": "O=C(Nc1cccs1)c1cccnc1", "note": "[Compound 9, N-(Thiophen-2-yl)nicotinamide]", "values": [{"measurement": "inhibition in counter screen", "setting": "[2]", "result": "No inhibition"}, {"measurement": "rescue by 100 μM Nam", "setting": "HCT116 cells; 10% FBS Nam-free DMEM", "result": "rescued by 100 μM Nam"}, {"measurement": "IC50", "setting": "HCT116 cells; Cas9-expressing HCT116, 10% FBS Nam-free DMEM", "result": 0.0208, "unit": "µM"}, {"measurement": "average increase in IC50 on NMNAT1 knockout", "setting": "HCT116 cells; HCT116, three independent NMNAT1 sgRNAs", "result": 6.0, "unit": "fold"}, {"measurement": "increase in IC50 of 9 with FK866", "setting": "[5]; addition of 278 pM FK866", "result": 2.9, "unit": "fold"}, {"measurement": "increase in IC50 of 9 with FK866", "setting": "[5]; addition of 833 pM FK866", "result": 15.4, "unit": "fold"}, {"measurement": "decrease in IC50 on ectopic NMNAT1 expression", "setting": "iHCT116 cells; parental iHCT116", "result": 1.85, "unit": "fold"}, {"measurement": "IC50", "setting": "iHCT116 cells; parental iHCT116, NMNAT1-expression", "result": 0.0269, "unit": "µM"}, {"measurement": "IC50", "setting": "iHCT116 cells; parental iHCT116, mock-infected", "result": 0.0497, "unit": "µM"}, {"measurement": "IC50", "setting": "iHCT116 cells; representative resistant clone with low NMNAT1 expression", "result": 0.574, "unit": "µM"}, {"measurement": "decrease in IC50 on ectopic NMNAT1 expression", "setting": "iHCT116 cells; resistant clone", "result": 9.58, "unit": "fold"}, {"measurement": "IC50", "setting": "iHCT116 cells; resistant clone with ectopic NMNAT1 expression", "result": 0.0599, "unit": "µM"}, {"measurement": "toxicity to S462", "setting": "[4]; 10% FBS Nam-free DMEM", "result": "toxic to S462"}, {"measurement": "rescue by nicotinamide", "setting": "[4]; 10% FBS Nam-free DMEM, comparison of vacor, 3-AP, tiazofurin and 9", "result": "rescued by nicotinamide"}, {"measurement": "IC50 of 9 less than 3-AP", "setting": "[4]; 10% FBS Nam-free DMEM, versus 3-AP", "result": 1823, "unit": "fold"}, {"measurement": "IC50 of 9 less than tiazofurin", "setting": "[4]; 10% FBS Nam-free DMEM, versus tiazofurin", "result": 477, "unit": "fold"}, {"measurement": "IC50 of 9 less than vacor", "setting": "[4]; 10% FBS Nam-free DMEM, versus vacor", "result": 206, "unit": "fold"}, {"measurement": "IC50", "setting": "[4]; [6]", "result": 0.845, "unit": "µM"}, {"measurement": "potency increase in Nam-free DMEM", "setting": "[4]; Nam-free DMEM versus basal medium", "result": 92, "unit": "fold"}, {"measurement": "IC50", "setting": "[4]; Nam-free DMEM with 10% FBS", "result": 0.00917, "unit": "µM"}, {"measurement": "IC50", "setting": "[4]; Nam-free DMEM, addition of 1.4 μM Nam", "result": 0.0514, "unit": "µM"}, {"measurement": "IC50", "setting": "[4]; Nam-free DMEM, addition of 37 μM Nam", "result": 1.84, "unit": "µM"}, {"measurement": "IC50", "setting": "[4]; [7]", "result": 1.2, "unit": "µM"}, {"measurement": "average increase in IC50 on NMNAT1 knockout", "setting": "[4]; S462, three independent NMNAT1 sgRNAs", "result": 28.5, "unit": "fold"}, {"measurement": "IC50", "setting": "[4]; [8]", "result": 4.23, "unit": "µM"}, {"measurement": "IC50", "setting": "[4]; addition of 1 mM exogenous Nam", "result": 35.7, "unit": "µM"}]}
